Values joined by “and” are separate entries in the source; they are usually repeats but may differ in a detail not shown here. Equal entries are not always repeated. Toxic doses and inconclusive results are not listed.
System: L1210 leukemia ip in BDF1 mice, survival T/C
Experiment: NCI In Vivo Anticancer Drug Screen. Data for tumor model L1210 Leukemia (intraperitoneal) in B6D2F1 (BDF1) mice
Conditions: endpoint: mean survival time, higher = longer survival
Method in brief: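 Tumor cells were implanted, animals were treated, and survival was followed. The result divides the treated measurement by the vehicle-control measurement.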

[1] = dose: 100.0 mg/kg/injection, schedule: Q04DX003 (ip), vehicle: Klucel (hydroxypropylcellulose) (HPC)
[2] = dose: 200.0 mg/kg/injection, schedule: Q04DX003 (ip), vehicle: Klucel (hydroxypropylcellulose) (HPC)
[3] = dose: 400.0 mg/kg/injection, schedule: Q04DX003 (ip), vehicle: Klucel (hydroxypropylcellulose) (HPC)
[4] = dose: 50.0 mg/kg/injection, schedule: Q01DX001 (ip), vehicle: saline
[5] = dose: 100.0 mg/kg/injection, schedule: Q01DX001 (ip), vehicle: saline
[6] = dose: 200.0 mg/kg/injection, schedule: Q01DX001 (ip), vehicle: saline
[7] = dose: 400.0 mg/kg/injection, schedule: Q01DX001 (ip), vehicle: saline
[8] = dose: 100.0 mg/kg/injection, schedule: Q04DX003 (ip), vehicle: saline
[9] = dose: 100.0 mg/kg/injection, schedule: Q04DX002 (ip), vehicle: saline with Tween-80
[10] = dose: 200.0 mg/kg/injection, schedule: Q04DX002 (ip), vehicle: saline with Tween-80
[11] = dose: 400.0 mg/kg/injection, schedule: Q04DX002 (ip), vehicle: saline with Tween-80
[12] = dose: 100.0 mg/kg/injection, schedule: Q04DX002 (ip), vehicle: Klucel (hydroxypropylcellulose) (HPC)
[13] = dose: 200.0 mg/kg/injection, schedule: Q04DX002 (ip), vehicle: Klucel (hydroxypropylcellulose) (HPC)
[14] = dose: 400.0 mg/kg/injection, schedule: Q04DX002 (ip), vehicle: Klucel (hydroxypropylcellulose) (HPC)

CN=C(NC)c1ccc(Cl)c(Cl)c1
T/C [1]: 96 % of control | T/C [2]: 98 % of control

N=C1N=C(N)C(CCCOc2cc(Cl)ccc2Cl)(CCCOc2cc(Cl)ccc2Cl)C(N)=N1
T/C [1]: 94 % of control | T/C [2]: 106 % of control | T/C [3]: 87 % of control

NC(=S)N/N=C\c1ccc(/C=N/NC(N)=S)cc1
T/C [4]: 90 % of control | T/C [5]: 93 % of control | T/C [6]: 90 % of control

O=COC1CC2CC1c1ccccc12 (stereo unspecified)
T/C [4]: 105 % of control | T/C [5]: 105 % of control | T/C [6]: 105 % of control | T/C [7]: 105 % of control

Nc1ccn(C2OC(CO)C(O)C2O)c(=NCC(=O)O)n1 (stereo unspecified)
T/C (dose: 100.0 mg/kg/injection, schedule: Q01DX005 (ip), vehicle: saline): 120 % of control | T/C (dose: 200.0 mg/kg/injection, schedule: Q01DX005 (ip), vehicle: saline): 122 % of control

CCOP(=O)(OCC)C(O)c1cnc(SC)nc1N (stereo unspecified)
T/C (dose: 100.0 mg/kg/injection, schedule: Q01DX009 (ip), vehicle: saline): 104 % of control | T/C [8]: 102 % of control | T/C (dose: 200.0 mg/kg/injection, schedule: Q01DX009 (ip), vehicle: saline): 100 % of control | T/C (dose: 200.0 mg/kg/injection, schedule: Q04DX003 (ip), vehicle: saline): 100 % of control | T/C (dose: 400.0 mg/kg/injection, schedule: Q01DX009 (ip), vehicle: saline): 105 % of control | T/C (dose: 400.0 mg/kg/injection, schedule: Q04DX003 (ip), vehicle: saline): 98 % of control

CCn1cc(C(=O)O)c(=O)c2cc3c(cc21)OCO3
T/C (dose: 100.0 mg/kg/injection, schedule: Q01DX001 (ip), vehicle: other): 96 % of control | T/C (dose: 200.0 mg/kg/injection, schedule: Q01DX001 (ip), vehicle: other): 108 % of control | T/C (dose: 400.0 mg/kg/injection, schedule: Q01DX001 (ip), vehicle: other): 98 % of control

CCOC(=O)/C(C)=N/O
T/C [9]: 96 % of control | T/C [10]: 116 % of control | T/C [11]: 104 % of control

CC(C)(CCCCC(C)(C)NC(=O)Nc1ccc(Cl)c(Cl)c1)NC(=O)Nc1ccc(Cl)c(Cl)c1
T/C (dose: 100.0 mg/kg/injection, schedule: Q01DX001 (ip), vehicle: carboxymethylcellulose (CMC)): 92 % of control | T/C (dose: 200.0 mg/kg/injection, schedule: Q01DX001 (ip), vehicle: carboxymethylcellulose (CMC)): 87 % of control

Nc1ccc2c(c1)C(=O)c1cc([N+](=O)[O-])ccc1-2
T/C (dose: 25.0 mg/kg/injection, schedule: Q01DX001 (ip), vehicle: Klucel (hydroxypropylcellulose) (HPC)): 97 % of control | T/C (dose: 50.0 mg/kg/injection, schedule: Q01DX001 (ip), vehicle: Klucel (hydroxypropylcellulose) (HPC)): 90 % of control | T/C (dose: 100.0 mg/kg/injection, schedule: Q01DX001 (ip), vehicle: Klucel (hydroxypropylcellulose) (HPC)): 94 % of control

Nc1ccn(Cc2cccc3ccccc23)c(=O)n1
T/C (dose: 100.0 mg/kg/injection, schedule: Q04DX003 (ip), vehicle: gum acacia): 93 % of control | T/C (dose: 200.0 mg/kg/injection, schedule: Q04DX003 (ip), vehicle: gum acacia): 90 % of control | T/C (dose: 400.0 mg/kg/injection, schedule: Q04DX003 (ip), vehicle: gum acacia): 90 % of control

c1ccc(C(c2ccccc2)(c2ccccc2)c2ccc(Nc3ccc(C(c4ccccc4)(c4ccccc4)c4ccccc4)cc3)cc2)cc1
T/C (dose: 25.6 mg/kg/injection, schedule: Q04DX002 (ip), vehicle: saline with Tween-80): 87 % of control | T/C (dose: 64.0 mg/kg/injection, schedule: Q04DX002 (ip), vehicle: saline with Tween-80): 91 % of control | T/C (dose: 160.0 mg/kg/injection, schedule: Q04DX002 (ip), vehicle: saline with Tween-80): 97 % of control | T/C [11]: 97 % of control

CCN(C(=O)C(F)(F)F)C(C)(C)C(SSSC(c1ccc(Cl)cc1)C(C)(C)N(CC)C(=O)C(F)(F)F)c1ccc(Cl)cc1 (stereo unspecified)
T/C (dose: 100.0 mg/kg/injection, schedule: Q01DX009 (ip), vehicle: other): 94 % of control

CCCC(=O)N1C(C)CCCC1C (stereo unspecified)
T/C (dose: 100.0 mg/kg/injection, schedule: Q04DX002 (ip), vehicle: saline): 117 % of control | T/C (dose: 200.0 mg/kg/injection, schedule: Q04DX002 (ip), vehicle: saline): 101 % of control | T/C (dose: 400.0 mg/kg/injection, schedule: Q04DX002 (ip), vehicle: saline): 93 % of control

Nc1cc(N)nc(S(=O)O)n1
T/C (dose: 25.0 mg/kg/injection, schedule: Q04DX003 (ip), vehicle: saline): 93 % of control | T/C (dose: 44.0 mg/kg/injection, schedule: Q01DX Z (ip), vehicle: saline): 119 % of control | T/C (dose: 50.0 mg/kg/injection, schedule: Q01DX009 (ip), vehicle: Klucel (hydroxypropylcellulose) (HPC)): 95 % of control | T/C (dose: 50.0 mg/kg/injection, schedule: Q04DX003 (ip), vehicle: saline): 92 % of control | T/C (dose: 66.0 mg/kg/injection, schedule: Q01DX Z (ip), vehicle: saline): 113 % of control | T/C (dose: 100.0 mg/kg/injection, schedule: Q01DX009 (ip), vehicle: Klucel (hydroxypropylcellulose) (HPC)): 95 % of control | T/C (dose: 100.0 mg/kg/injection, schedule: Q01DX Z (ip), vehicle: saline): 101 % of control | T/C [1]: 107 % of control | T/C [8]: 101 % of control | T/C (dose: 200.0 mg/kg/injection, schedule: Q01DX009 (ip), vehicle: Klucel (hydroxypropylcellulose) (HPC)): 89 % of control

CCCCCCCCCCCCOc1ccc(C=Nc2ccc(C)cc2)cc1
T/C [12]: 109 % of control | T/C [13]: 109 % of control | T/C [14]: 95 % of control

O=N/C=C/C(=N/Nc1ccc(C(=O)O)cc1)[N+](=O)[O-]
T/C [5]: 101 % of control | T/C [6]: 93 % of control | T/C [7]: 93 % of control

O=[N+]([O-])c1cc(C(F)(F)F)ccc1Oc1ccc(Cl)cc1
T/C [1]: 96 % of control | T/C [2]: 103 % of control | T/C [3]: 96 % of control

CSc1ccc(NC(=O)c2ccc(Cl)cc2)cc1
T/C [9]: 100 % of control | T/C [10]: 100 % of control | T/C [11]: 92 % of control

O=C(CCC(=O)Nc1ccc(C2=NCCN2)cc1)Nc1ccc(C2=NCCN2)cc1
T/C (dose: 2.0 mg/kg/injection, schedule: Q01DX Z (ip), vehicle: carboxymethylcellulose (CMC)): 100 % of control | T/C (dose: 3.0 mg/kg/injection, schedule: Q01DX Z (ip), vehicle: carboxymethylcellulose (CMC)): 105 % of control | T/C (dose: 4.0 mg/kg/injection, schedule: Q01DX Z (ip), vehicle: carboxymethylcellulose (CMC)): 114 % of control | T/C (dose: 6.0 mg/kg/injection, schedule: Q01DX Z (ip), vehicle: carboxymethylcellulose (CMC)): 107 % of control | T/C (dose: 12.0 mg/kg/injection, schedule: Q01DX Z (ip), vehicle: carboxymethylcellulose (CMC)): 173 % of control | T/C (dose: 16.0 mg/kg/injection, schedule: Q01DX Z (ip), vehicle: carboxymethylcellulose (CMC)): 218 % of control and 234 % of control | T/C (dose: 24.0 mg/kg/injection, schedule: Q01DX Z (ip), vehicle: carboxymethylcellulose (CMC)): 216 % of control | T/C (dose: 38.0 mg/kg/injection, schedule: Q01DX001 (ip), vehicle: carboxymethylcellulose (CMC)): 120 % of control | T/C (dose: 38.0 mg/kg/injection, schedule: Q01DX001 (ip), vehicle: other): 117 % of control | T/C (dose: 56.0 mg/kg/injection, schedule: Q01DX001 (ip), vehicle: carboxymethylcellulose (CMC)): 120 % of control | T/C (dose: 56.0 mg/kg/injection, schedule: Q01DX001 (ip), vehicle: other): 119 % of control | T/C (dose: 62.0 mg/kg/injection, schedule: Q01DX Z (oral), vehicle: carboxymethylcellulose (CMC)): 104 % of control | T/C (dose: 64.0 mg/kg/injection, schedule: Q01DX Z (ip), vehicle: carboxymethylcellulose (CMC)): 113 % of control | T/C (dose: 125.0 mg/kg/injection, schedule: Q01DX Z (oral), vehicle: carboxymethylcellulose (CMC)): 104 % of control | T/C (dose: 128.0 mg/kg/injection, schedule: Q01DX001 (ip), vehicle: carboxymethylcellulose (CMC)): 183 % of control | T/C (dose: 250.0 mg/kg/injection, schedule: Q01DX Z (oral), vehicle: carboxymethylcellulose (CMC)): 110 % of control | T/C (dose: 500.0 mg/kg/injection, schedule: Q01DX Z (oral), vehicle: carboxymethylcellulose (CMC)): 177 % of control

CN1COC(OC(C)(C)C)C(C)(C)C1 (stereo unspecified)
T/C (dose: 100.0 mg/kg/injection, schedule: Q01DX001 (ip), vehicle: saline sonified): 90 % of control | T/C (dose: 400.0 mg/kg/injection, schedule: Q01DX001 (ip), vehicle: saline sonified): 95 % of control

CCOC(=O)C1C(=O)CC(=O)C(C(=O)OCC)C1c1ccc(OC)c(OC)c1OC (stereo unspecified)
T/C [12]: 103 % of control | T/C [13]: 101 % of control | T/C [14]: 113 % of control

Source: PubChem BioAssay AID248 (DTP/NCI, 2004)
